Among the data in ChEMBL document CHEMBL1287669, “Inhibitors selective for HDAC6 in enzymes and cells” (Bioorg Med Chem Lett, 2010) are IC50, inhibition and Ratio IC50 values, retold here.

In assay [1] the target is T1, Histone deacetylase 1 (Homo sapiens, UniProt Q13547). The assay can be described thus: Inhibition of recombinant human HDAC1 using Cbz-Lys(TFAc)-AMC as substrate by fluorometric analysis.
In assay [2] the target is T2, Protein deacetylase HDAC6 (Homo sapiens, UniProt Q9UBN7).
T2 sequence (Q9UBN7 whole entry): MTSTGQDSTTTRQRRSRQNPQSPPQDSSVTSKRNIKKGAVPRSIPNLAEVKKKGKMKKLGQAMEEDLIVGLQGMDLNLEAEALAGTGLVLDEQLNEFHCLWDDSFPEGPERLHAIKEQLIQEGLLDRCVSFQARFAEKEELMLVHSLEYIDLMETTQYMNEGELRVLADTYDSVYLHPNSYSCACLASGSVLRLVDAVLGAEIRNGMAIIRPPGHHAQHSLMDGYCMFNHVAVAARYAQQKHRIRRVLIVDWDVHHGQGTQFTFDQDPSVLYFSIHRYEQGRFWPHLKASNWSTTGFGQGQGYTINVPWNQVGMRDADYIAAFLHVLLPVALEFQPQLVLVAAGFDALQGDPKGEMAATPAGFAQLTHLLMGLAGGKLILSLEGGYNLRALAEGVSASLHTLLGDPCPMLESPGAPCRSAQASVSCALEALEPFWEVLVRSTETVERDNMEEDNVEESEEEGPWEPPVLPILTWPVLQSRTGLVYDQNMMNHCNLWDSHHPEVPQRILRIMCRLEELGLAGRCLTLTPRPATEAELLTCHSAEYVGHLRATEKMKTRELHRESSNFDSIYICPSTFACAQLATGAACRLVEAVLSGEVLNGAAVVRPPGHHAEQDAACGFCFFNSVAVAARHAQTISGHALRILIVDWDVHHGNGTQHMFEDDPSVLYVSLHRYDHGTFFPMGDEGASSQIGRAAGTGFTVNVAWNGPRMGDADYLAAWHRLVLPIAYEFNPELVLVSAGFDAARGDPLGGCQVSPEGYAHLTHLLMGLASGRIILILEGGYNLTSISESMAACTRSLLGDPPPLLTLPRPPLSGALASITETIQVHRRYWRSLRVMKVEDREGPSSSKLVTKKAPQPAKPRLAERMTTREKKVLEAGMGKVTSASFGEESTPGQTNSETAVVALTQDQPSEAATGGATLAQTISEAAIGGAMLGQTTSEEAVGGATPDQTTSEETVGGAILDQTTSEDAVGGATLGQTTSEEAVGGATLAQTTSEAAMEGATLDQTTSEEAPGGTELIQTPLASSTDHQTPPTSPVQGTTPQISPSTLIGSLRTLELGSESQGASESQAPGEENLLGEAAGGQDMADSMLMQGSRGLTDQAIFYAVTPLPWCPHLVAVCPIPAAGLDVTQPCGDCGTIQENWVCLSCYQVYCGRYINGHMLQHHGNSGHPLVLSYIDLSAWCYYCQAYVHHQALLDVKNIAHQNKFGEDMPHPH
The assay can be described thus: Inhibition of recombinant human HDAC6 using Boc-Lys(Ac)-AMC as substrate by fluorometric analysis.

The target in assay [3] is T3, Protein deacetylase HDAC6 (Homo sapiens) (UniProt Q9UBN7).
T3 sequence (whole entry): T2 sequence (Q9UBN7 whole entry)
The assay is described as follows: Inhibition of recombinant human HDAC6 at 1 uM using Boc-Lys(Ac)-AMC as substrate by fluorometric analysis.

Assay [4] concerns the target T1, Histone deacetylase 1. The assay can be described thus: Inhibition of human HDAC1 in PMA-differentiated THP1 cells assessed as hyperacetylation of histone H3 after 4 hrs by Western blotting. It counts as cell-based. The following applies: THP-1.
The species named for assay [5] is Homo sapiens. The assay is described as follows: Selectivity index, IC50 for recombinant human HDAC6 to IC50 for recombinant human HDAC1.
Assay [6] deals with T1, Histone deacetylase 1. The assay can be described thus: Inhibition of recombinant human HDAC1 using Ac-RHKK(Ac)-ACC as substrate by fluorometric analysis.
The target in assay [7] is T2, Protein deacetylase HDAC6. The assay can be described thus: Inhibition of recombinant human HDAC6 using Ac-RHKK(Ac)-ACC as substrate by fluorometric analysis.

Calls of active or inactive are those of the source. The rule behind the calls is not given here.

T1 sequence (Q13547 whole entry): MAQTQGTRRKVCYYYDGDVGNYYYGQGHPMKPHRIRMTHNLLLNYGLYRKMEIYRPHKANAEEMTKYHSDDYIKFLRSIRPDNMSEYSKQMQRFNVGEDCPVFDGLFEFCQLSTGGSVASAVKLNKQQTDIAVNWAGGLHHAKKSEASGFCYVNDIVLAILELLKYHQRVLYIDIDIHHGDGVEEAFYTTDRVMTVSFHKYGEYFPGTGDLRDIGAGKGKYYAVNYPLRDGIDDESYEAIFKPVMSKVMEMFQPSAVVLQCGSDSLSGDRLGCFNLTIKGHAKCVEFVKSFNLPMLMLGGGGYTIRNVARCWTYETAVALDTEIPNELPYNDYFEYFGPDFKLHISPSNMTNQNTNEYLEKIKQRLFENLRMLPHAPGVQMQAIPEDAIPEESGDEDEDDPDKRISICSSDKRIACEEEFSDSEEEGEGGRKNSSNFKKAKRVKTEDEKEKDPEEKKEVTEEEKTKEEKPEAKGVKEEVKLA

One may read the IC50 as the midpoint of a concentration-inhibition curve. As usually defined, the inhibition is the change of the read-out against control, counted positive when it falls. Regarding `CC(C)(C)OC(=O)N[C@@H](CCCCCO)C(=O)NC1CCCC1`, the IC50 in assay [1] was more than 10 µM; in assay [2], 0.24 µM. Moreover, the inhibition in assay [3] is 80%.
With `O=C(O)CCCC[C@H](NC(=O)OCc1ccccc1)C(=O)NC1CCCC1`, in assay [3], the inhibition came to 20%.
Consider `CN(C)c1ccc(C(=O)N[C@@H](CCCCCC(=O)NO)C(=O)Nc2cccc3cccnc23)cc1`, for which the IC50 in assay [1] is 0.021 µM; in assay [2] it was 0.943 µM.
In the case of `CC(C)(C)OC(=O)N[C@@H](CCCCCCS)C(=O)NC1CCCC1`, the inhibition in assay [3] was determined as 60%.
On to `CC(C)(C)OC(=O)N[C@@H](CCCCCS)C(=O)NC1CCCC1`, for which the IC50 was 1.73 µM in assay [1] and 0.054 µM in assay [2]. Further, the inhibition entry in assay [4] is “Active”. In addition, the inhibition in assay [3] amounted to 98%.
In the case of `O=C(CCCCCn1c2ccccc2c2ccccc21)NO`, the Ratio IC50 in assay [5] came to 74. Besides, the IC50 is 3.07 µM in assay [6] and 0.041 µM in assay [7].
With `O=C(O)CCCCC[C@H](NC(=O)OCc1ccccc1)C(=O)NC1CCCC1`, in assay [3], the inhibition is 40%.
On to `CC(C)(C)OC(=O)Nc1ccc(-c2cc(C(=O)NCCCCCCC(=O)NO)no2)cc1`, for which the IC50 in assay [1] amounted to 0.34 µM; in assay [6], 3.57 µM.
As to `CC(C)(C)OC(=O)N[C@@H](CCCCCCO)C(=O)NC1CCCC1`, the inhibition in assay [3] came out at 3%.
As to `COC(=O)CCCCC[C@H](NC(=O)OC(C)(C)C)C(=O)NC1CCCC1`, the inhibition in assay [3] is 60%.
As for `CC(C)(C)OC(=O)N[C@@H](CCCCO)C(=O)NC1CCCC1`, the inhibition in assay [3] was determined as 50%.
Same read-out and setting: for `CC(C)(C)OC(=O)N[C@@H](CCCCCC(=O)O)C(=O)NC1CCCC1` the value was 45%; for `COC(=O)CCCCC[C@H](NC(=O)OCc1ccccc1)C(=O)NC1CCCC1`, 65%.
Consider `O=C(CCCCC[C@H](NC(=O)c1cc2ccccc2[nH]1)C(=O)Nc1cccc2cccnc12)NO`, for which the figures for the concentration for half-maximal inhibition (IC50) in assay [1] and in assay [2] were 0.048 µM and 0.107 µM, respectively.
On to `CC(C)(C)OC(=O)N[C@@H](CCCCCC(=O)NO)C(=O)NC1CCCC1`, for which the IC50 in assay [1] worked out at 1.42 µM; in assay [2], 0.026 µM; in assay [6], 3.57 µM; in assay [7], 0.027 µM. Further, in assay [3], the inhibition worked out at 99%.
Consider `COC(=O)CCCC[C@H](NC(=O)OC(C)(C)C)C(=O)NC1CCCC1`, for which the inhibition in assay [3] stood at 40%.
